Series [1] is described as follows: Antioxidant activity assessed as reactive oxygen species scavenging activity. It is filed as physicochemical.
The subject of a further series is Hepatocyte. Kind of series: Hepatoprotective activity against tert-butyl hydroperoxide-induced oxidative stress in Wistar rat hepatocytes assessed as cell viability at 60 ug/ml by tryphan blue exclusion method (reference value: 74%). To be noted: for viability at 60 µg/mL: read-out: Activity. In kind it is functional.

Regarding `C[C@@H]1O[C@@H](OC[C@H]2O[C@@H](Oc3c(-c4ccc(O)cc4)oc4c(CN5CCCC(O)C5=O)c(O)cc(O)c4c3=O)[C@H](O[C@@H]3O[C@@H](C)[C@H](O)[C@@H](O)[C@H]3O)[C@@H](O)[C@H]2O)[C@H](O)[C@H](O)[C@H]1O` (stereo partly specified), the outcome in series [1] was Active. Also, in the series with Hepatocyte, the viability at 60 µg/mL turned out to be 177%.
Take SILYMARIN [listing 1 of 2 here]: the Activity with Hepatocyte was found to be 182%.
With `C[C@@H]1O[C@@H](OC[C@H]2O[C@@H](Oc3c(-c4ccc(O)c(O)c4)oc4cc(O[C@@H]5O[C@H](CO)[C@@H](O)[C@H](O)[C@H]5O)cc(O)c4c3=O)[C@H](O[C@@H]3O[C@@H](C)[C@H](O)[C@@H](O)[C@H]3O)[C@@H](O)[C@H]2O)[C@H](O)[C@H](O)[C@H]1O`, the result in series [1] was Active. In addition, the viability at 60 µg/mL in the series with Hepatocyte is 186%.
As for `C[C@@H]1O[C@@H](OC[C@H]2O[C@@H](Oc3c(-c4ccc(O)c(O)c4)oc4c(CN5CCCC(O)C5=O)c(O)cc(O)c4c3=O)[C@H](O[C@@H]3O[C@@H](C)[C@H](O)[C@@H](O)[C@H]3O)[C@@H](O)[C@H]2O)[C@H](O)[C@H](O)[C@H]1O` (stereo partly specified), the outcome in series [1] was Active. In addition, the viability at 60 µg/mL with Hepatocyte was 159%.
On to `C[C@@H]1O[C@@H](OC[C@H]2O[C@@H](Oc3c(-c4ccc(O)c(O)c4)oc4cc(O)cc(O)c4c3=O)[C@H](O)[C@@H](O)[C@@H]2O)[C@H](O)[C@H](O)[C@H]1O` [RUTIN], for which the outcome in series [1] was Active. For the same compound, the viability at 60 µg/mL in the series on Hepatocyte was 168%.
With `C[C@@H]1O[C@@H](OC[C@H]2O[C@@H](Oc3c(-c4ccc(O)cc4)oc4cc(O[C@@H]5O[C@H](CO)[C@@H](O)[C@H](O)[C@H]5O)cc(O)c4c3=O)[C@H](O[C@@H]3O[C@@H](C)[C@H](O)[C@@H](O)[C@H]3O)[C@@H](O)[C@H]2O)[C@H](O)[C@H](O)[C@H]1O`, the result in series [1] was Active. Besides, in the series on Hepatocyte, the viability at 60 µg/mL came out at 164%.
In the case of `C[C@@H]1O[C@@H](O[C@H]2[C@H](Oc3c(-c4ccc(O)c(O)c4)oc4cc(O)cc(O)c4c3=O)O[C@H](COC(=O)CC(C)(O)CC(=O)O)[C@H](O)[C@@H]2O)[C@H](O)[C@H](O)[C@H]1O` (stereo partly specified), the outcome in series [1] was Active. Further, in the series on Hepatocyte, the viability at 60 µg/mL was determined as 182%.
For `O=c1c(O[C@@H]2O[C@H](CO)[C@H](O)[C@H](O)[C@H]2O)c(-c2ccc(O)cc2)oc2cc(O)cc(O)c12` [TRIFOLIN], in that order: “Active” and 191%.
For `C[C@@H]1O[C@@H](OC[C@H]2O[C@@H](Oc3c(-c4ccc(O)c(O)c4)oc4cc(O)cc(O)c4c3=O)[C@H](O)[C@@H](O)[C@H]2O)[C@H](O)[C@H](O)[C@H]1O`, in that order: “Active” and 159%.
For `C[C@@H]1O[C@@H](OC[C@H]2O[C@@H](Oc3c(-c4ccc(O)c(O)c4)oc4cc(O)cc(O)c4c3=O)[C@H](O[C@@H]3O[C@@H](C)[C@H](O)[C@@H](O)[C@H]3O)[C@@H](O)[C@H]2O)[C@H](O)[C@H](O)[C@H]1O`, in that order: “Active” and 195%.
`C[C@@H]1O[C@@H](O[C@H]2[C@H](Oc3c(-c4ccc(O)cc4)oc4cc(O)cc(O)c4c3=O)O[C@H](COC(=O)CC(C)(O)CC(=O)O)[C@H](O)[C@@H]2O)[C@H](O)[C@H](O)[C@H]1O` (stereo partly specified): the outcome in series [1] was Active. Besides, the viability at 60 µg/mL in the series with Hepatocyte turned out to be 155%.
On the same counts, the results for `O=c1cc(-c2ccc(O)cc2)oc2cc(O[C@@H]3O[C@H](CO)[C@@H](O)[C@H](O)[C@H]3O)cc(O)c12` [APIGETRIN] are “Active” and 177%.
Turning to SILYMARIN [listing 2 of 2 here], the outcome in series [1] was Active.
Turning to `C[C@@H]1O[C@@H](OC[C@H]2O[C@@H](Oc3c(-c4ccc(O)cc4)oc4cc(O)cc(O)c4c3=O)[C@H](O[C@@H]3O[C@@H](C)[C@H](O)[C@@H](O)[C@H]3O)[C@@H](O)[C@H]2O)[C@H](O)[C@H](O)[C@H]1O`, in series [1], the result was Active. The viability at 60 µg/mL in the series with Hepatocyte is 168%.

(Values after ChEMBL document CHEMBL3745595, “Flavoalkaloids and Flavonoids from Astragalus monspessulanus” (J Nat Prod, 2015).)
